Here are results for five compounds from paper PMC5564600 (Oncotarget, 2017).

SMILES strings stand for the structures. Several values for one entry are separate records, joined by “and”; a condition that tells them apart may be missing. Identical values can stand only once.

Common to all, as to assay: biochemical
What all share (format): binding

The target of test [1] is T1, panel of 442 kinases (Homo sapiens, UniProt P42679).
T1 construct: purchased Ambit Biosciences (scanMAXX KINOMEscan)
T1 sequence (P42679 1-507): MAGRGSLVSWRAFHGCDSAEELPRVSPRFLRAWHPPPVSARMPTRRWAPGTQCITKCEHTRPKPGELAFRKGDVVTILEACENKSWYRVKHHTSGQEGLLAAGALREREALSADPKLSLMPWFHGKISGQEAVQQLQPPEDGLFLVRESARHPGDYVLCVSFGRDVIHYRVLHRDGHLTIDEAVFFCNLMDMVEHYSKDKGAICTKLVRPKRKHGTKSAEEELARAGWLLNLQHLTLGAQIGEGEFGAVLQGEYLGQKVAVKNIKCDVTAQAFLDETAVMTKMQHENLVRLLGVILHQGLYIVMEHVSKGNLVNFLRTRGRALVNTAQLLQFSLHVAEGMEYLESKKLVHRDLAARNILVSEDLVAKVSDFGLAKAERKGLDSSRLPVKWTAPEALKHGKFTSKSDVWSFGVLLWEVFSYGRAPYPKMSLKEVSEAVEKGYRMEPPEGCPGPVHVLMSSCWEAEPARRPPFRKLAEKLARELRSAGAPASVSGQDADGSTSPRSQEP
The conditions noted are these: CTK; for remaining activity at 1 µM: read-out: % of control at 1 µM.

Test [2] concerns the target T2, panel of 442 kinases (Homo sapiens, UniProt P52333).
T2 construct: purchased Ambit Biosciences (scanMAXX KINOMEscan)
T2 sequence (P52333 1-1124): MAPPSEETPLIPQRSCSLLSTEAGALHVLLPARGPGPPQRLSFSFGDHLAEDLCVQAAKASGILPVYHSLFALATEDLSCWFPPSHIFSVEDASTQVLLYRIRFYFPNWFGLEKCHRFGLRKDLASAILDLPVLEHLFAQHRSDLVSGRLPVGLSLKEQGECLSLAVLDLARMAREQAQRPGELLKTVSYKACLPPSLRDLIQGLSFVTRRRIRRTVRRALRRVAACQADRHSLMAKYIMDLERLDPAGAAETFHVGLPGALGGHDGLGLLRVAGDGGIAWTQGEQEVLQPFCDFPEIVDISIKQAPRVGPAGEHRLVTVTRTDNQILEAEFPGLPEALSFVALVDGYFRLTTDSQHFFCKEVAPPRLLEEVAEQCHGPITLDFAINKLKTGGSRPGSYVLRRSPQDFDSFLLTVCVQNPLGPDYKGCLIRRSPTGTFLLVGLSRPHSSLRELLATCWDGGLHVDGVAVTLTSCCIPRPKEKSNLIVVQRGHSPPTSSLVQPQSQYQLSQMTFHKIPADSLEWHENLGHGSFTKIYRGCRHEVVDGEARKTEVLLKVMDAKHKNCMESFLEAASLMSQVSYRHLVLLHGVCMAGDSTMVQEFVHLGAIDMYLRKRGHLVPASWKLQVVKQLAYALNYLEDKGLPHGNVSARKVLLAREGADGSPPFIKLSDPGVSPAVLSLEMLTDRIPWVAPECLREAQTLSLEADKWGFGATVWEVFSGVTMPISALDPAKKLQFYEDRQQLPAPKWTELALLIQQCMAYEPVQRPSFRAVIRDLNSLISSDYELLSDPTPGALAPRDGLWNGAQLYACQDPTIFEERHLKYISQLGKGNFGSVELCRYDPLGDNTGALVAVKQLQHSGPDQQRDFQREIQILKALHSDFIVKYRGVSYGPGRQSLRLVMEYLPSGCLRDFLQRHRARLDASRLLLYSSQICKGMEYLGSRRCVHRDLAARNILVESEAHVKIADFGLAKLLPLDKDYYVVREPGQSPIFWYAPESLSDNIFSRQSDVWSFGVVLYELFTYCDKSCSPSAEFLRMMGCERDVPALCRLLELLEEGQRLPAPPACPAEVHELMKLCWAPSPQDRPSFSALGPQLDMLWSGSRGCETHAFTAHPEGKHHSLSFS
The following applies: kinase JAK3(JH1domain-catalytic); for remaining activity at 1 µM: read-out: % of control at 1 µM.

In test [3] the target is T3, panel of 442 kinases (Homo sapiens, UniProt P06241).
T3 construct: purchased Ambit Biosciences (scanMAXX KINOMEscan)
The conditions noted are these: kinase FYN; for remaining activity at 1 µM: read-out: % of control at 1 µM.

The target of test [4] is T4, panel of 442 kinases (Homo sapiens, UniProt Q9H1R3).
T4 construct: purchased Ambit Biosciences (scanMAXX KINOMEscan)
The conditions noted are these: kinase MYLK2; for remaining activity at 1 µM: read-out: % of control at 1 µM.

Test [5] addresses T5, panel of 442 kinases (Homo sapiens, UniProt Q8N568).
T5 construct: purchased Ambit Biosciences (scanMAXX KINOMEscan)
The following applies: DCAMKL2; for remaining activity at 1 µM: read-out: % of control at 1 µM.

For test [6], the target named is T6, panel of 442 kinases (Homo sapiens, UniProt Q9Y243).
T6 construct: purchased Ambit Biosciences (scanMAXX KINOMEscan)
The conditions noted are these: AKT3; for remaining activity at 1 µM: read-out: % of control at 1 µM.

In test [7] the target is T7, panel of 442 kinases (Homo sapiens, UniProt P37173).
T7 construct: purchased Ambit Biosciences (scanMAXX KINOMEscan)
The conditions noted are these: kinase TGFBR2; for remaining activity at 1 µM: read-out: TGFBR2 (% of control at 1 µM).

Test [8] has as its target T8, panel of 442 kinases (Homo sapiens, UniProt Q9C098).
T8 construct: purchased Ambit Biosciences (scanMAXX KINOMEscan)
The conditions noted are these: DCAMKL3; for remaining activity at 1 µM: read-out: % of control at 1 µM.

Test [9] has as its system panel of 442 kinases.
The mark [10] stands for this setting: 10 µM, read-out: % of control at 10 µM.
The mark [11] stands for this setting: EGFR(L747-E749del, A750P), 1 µM.
The mark [12] stands for this setting: EGFR(L747-S752del, P753S), 1 µM.
The mark [13] stands for this setting: kinase KIT(D816V), first of two lines so named (r206), 1 µM.

T7 sequence (P37173 23-567): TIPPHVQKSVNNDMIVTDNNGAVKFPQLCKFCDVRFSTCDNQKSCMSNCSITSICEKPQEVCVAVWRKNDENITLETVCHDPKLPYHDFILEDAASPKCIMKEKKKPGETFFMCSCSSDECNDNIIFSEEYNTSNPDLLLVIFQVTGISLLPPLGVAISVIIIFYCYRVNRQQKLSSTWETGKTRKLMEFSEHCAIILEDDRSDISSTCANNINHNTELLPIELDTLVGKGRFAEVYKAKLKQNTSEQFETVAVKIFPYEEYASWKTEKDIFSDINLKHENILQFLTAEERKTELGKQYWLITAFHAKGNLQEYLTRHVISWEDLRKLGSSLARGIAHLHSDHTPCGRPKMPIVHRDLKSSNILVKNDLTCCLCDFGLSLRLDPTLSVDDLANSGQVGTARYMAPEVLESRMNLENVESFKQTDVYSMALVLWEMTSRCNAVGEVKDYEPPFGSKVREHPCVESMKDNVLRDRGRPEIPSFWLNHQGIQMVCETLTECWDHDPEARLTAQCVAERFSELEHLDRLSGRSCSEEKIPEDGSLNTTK
T3 sequence (P06241 whole entry): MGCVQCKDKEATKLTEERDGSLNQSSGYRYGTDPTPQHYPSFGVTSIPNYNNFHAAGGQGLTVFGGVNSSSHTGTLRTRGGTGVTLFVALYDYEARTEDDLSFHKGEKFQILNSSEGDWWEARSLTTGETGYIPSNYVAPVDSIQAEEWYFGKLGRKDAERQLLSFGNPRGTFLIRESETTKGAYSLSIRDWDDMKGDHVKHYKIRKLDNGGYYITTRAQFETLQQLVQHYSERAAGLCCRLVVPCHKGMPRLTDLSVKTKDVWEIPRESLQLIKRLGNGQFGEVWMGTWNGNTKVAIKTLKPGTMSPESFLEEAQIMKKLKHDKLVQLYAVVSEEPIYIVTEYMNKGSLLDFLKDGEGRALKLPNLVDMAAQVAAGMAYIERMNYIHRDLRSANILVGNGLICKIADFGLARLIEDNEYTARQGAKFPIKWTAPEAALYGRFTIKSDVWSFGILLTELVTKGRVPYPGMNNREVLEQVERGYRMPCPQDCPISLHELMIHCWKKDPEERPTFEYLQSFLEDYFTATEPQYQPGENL
T5 sequence (Q8N568 whole entry): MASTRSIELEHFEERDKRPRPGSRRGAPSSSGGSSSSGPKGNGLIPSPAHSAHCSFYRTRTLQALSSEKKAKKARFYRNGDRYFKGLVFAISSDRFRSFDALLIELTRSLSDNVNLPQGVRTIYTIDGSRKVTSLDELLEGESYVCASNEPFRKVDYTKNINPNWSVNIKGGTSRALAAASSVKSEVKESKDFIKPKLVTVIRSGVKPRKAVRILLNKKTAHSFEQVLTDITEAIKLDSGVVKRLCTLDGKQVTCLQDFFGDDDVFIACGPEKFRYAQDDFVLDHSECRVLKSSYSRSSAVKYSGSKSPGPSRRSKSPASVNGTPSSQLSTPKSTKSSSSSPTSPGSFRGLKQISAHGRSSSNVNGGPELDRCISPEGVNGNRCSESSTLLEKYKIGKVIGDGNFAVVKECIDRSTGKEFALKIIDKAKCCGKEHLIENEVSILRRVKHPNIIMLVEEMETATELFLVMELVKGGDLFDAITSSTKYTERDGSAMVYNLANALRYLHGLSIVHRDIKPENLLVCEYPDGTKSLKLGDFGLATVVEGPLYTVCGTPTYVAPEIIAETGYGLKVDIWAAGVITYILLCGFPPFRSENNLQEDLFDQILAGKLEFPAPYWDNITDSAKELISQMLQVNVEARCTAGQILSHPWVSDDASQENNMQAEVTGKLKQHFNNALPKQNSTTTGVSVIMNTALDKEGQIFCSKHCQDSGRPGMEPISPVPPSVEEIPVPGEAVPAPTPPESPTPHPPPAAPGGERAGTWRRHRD
T8 sequence (Q9C098 whole entry): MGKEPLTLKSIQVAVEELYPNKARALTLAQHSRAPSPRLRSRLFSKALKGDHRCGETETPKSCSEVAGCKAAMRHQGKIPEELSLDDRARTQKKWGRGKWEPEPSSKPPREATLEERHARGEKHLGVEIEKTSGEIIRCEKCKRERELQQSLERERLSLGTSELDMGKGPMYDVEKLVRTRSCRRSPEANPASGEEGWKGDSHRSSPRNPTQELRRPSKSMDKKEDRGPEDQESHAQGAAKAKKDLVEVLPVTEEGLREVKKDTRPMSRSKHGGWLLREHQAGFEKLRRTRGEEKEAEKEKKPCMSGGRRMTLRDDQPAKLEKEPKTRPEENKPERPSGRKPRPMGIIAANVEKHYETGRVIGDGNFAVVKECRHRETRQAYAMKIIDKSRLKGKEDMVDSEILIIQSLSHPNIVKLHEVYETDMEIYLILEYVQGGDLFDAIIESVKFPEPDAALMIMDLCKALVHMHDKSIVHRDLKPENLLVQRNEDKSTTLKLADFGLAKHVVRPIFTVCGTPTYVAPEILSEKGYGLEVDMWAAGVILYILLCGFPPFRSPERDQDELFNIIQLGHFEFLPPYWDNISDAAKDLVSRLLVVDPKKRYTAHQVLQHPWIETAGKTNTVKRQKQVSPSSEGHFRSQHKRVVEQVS
T6 sequence (Q9Y243 whole entry): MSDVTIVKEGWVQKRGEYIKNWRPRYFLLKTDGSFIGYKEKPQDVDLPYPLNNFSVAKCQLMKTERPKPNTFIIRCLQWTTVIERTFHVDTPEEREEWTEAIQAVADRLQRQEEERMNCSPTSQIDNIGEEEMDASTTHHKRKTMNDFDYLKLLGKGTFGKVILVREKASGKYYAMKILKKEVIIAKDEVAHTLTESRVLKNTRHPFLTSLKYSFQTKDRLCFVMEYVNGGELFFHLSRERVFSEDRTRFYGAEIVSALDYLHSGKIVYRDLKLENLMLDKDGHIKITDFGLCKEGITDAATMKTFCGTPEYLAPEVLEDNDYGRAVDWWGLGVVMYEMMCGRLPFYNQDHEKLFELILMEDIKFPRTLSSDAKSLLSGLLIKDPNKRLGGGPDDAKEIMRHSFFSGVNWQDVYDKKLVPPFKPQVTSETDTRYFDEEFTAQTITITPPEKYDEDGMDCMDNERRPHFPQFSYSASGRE
T4 sequence (Q9H1R3 whole entry): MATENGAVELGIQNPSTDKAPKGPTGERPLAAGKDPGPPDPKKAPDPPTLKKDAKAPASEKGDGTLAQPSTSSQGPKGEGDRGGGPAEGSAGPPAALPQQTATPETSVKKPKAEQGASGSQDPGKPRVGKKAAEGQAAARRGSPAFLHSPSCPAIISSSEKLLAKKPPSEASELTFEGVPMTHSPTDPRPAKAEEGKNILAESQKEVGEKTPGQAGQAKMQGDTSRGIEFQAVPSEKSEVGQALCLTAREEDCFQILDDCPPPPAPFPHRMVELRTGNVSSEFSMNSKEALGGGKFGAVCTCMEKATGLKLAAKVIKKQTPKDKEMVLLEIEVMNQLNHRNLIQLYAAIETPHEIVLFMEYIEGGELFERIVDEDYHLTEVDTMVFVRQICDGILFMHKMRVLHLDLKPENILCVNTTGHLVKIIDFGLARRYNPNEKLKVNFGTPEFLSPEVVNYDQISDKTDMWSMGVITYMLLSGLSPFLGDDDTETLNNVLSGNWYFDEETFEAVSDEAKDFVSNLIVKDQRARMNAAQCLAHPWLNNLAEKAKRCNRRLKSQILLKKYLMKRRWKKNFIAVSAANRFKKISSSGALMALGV

As to `Nc1cc(C(F)(F)F)c(-c2cc(N3CCOCC3)nc(N3CCOCC3)n2)cn1` [Buparlisib], the remaining activity at 1 µM stood at 100% at panel of 442 kinases [1]; 90% on panel of 442 kinases [2]; 100% on panel of 442 kinases [3]; 100% at panel of 442 kinases [4]; 100% on panel of 442 kinases [5]; 84% at panel of 442 kinases [6]. The remaining activity at 1 µM was 98% at panel of 442 kinases [7] and 100% at panel of 442 kinases [8]. Further, the remaining activity at 10 µM at panel of 442 kinases [1] (setting [10]) was determined as 100%; at panel of 442 kinases [2] (setting [10]), 89%; on panel of 442 kinases [3] (setting [10]) it was 100%; at panel of 442 kinases [4] (setting [10]) it was 100%; at panel of 442 kinases [5] (setting [10]), 100%; on panel of 442 kinases [6] (setting [10]) it was 92%. Further, the remaining activity at 10 µM on panel of 442 kinases [7] (10 µM, read-out: TGFBR2 (% of control at 10 µM)) came out at 100%; on panel of 442 kinases [8] (setting [10]), 100%. Also, the “% of control at 1 µM” value with panel of 442 kinases [9] (1 μM) is 85 % of control and 100 % of control and 91 % of control and 86 % of control. The “% of control at 10 µM” value with panel of 442 kinases [9] (10 μM) is 96 % of control and 100 % of control and 93 % of control and 88 % of control.
In the case of `Cn1c(=O)n(-c2ccc(C(C)(C)C#N)cc2)c2c3cc(-c4cnc5ccccc5c4)ccc3ncc21` [Dactolisib, 2-methyl-2-[4-(3-methyl-2-oxo-8-quinolin-3-yl-2,3-dihydroimidazo[4,5-c]quinolin-1-yl)-phenyl] propionitrile], the remaining activity at 1 µM on panel of 442 kinases [1] amounted to 92%; on panel of 442 kinases [2], 37%; at panel of 442 kinases [3], 81%; at panel of 442 kinases [4], 93%; on panel of 442 kinases [5] it was 94%; at panel of 442 kinases [6], 84%. The remaining activity at 1 µM at panel of 442 kinases [7] and on panel of 442 kinases [8] was 100% throughout. Besides, the “% of control at 1 µM” value in the test with panel of 442 kinases [9] (1 μM) is 81 % of control and 100 % of control and 86 % of control and 59 % of control; in the test with panel of 442 kinases [9] (FLT3(ITD), 1 µM), 44 % of control.
On to `FC(F)c1nc2ccccc2n1-c1nc(N2CCOCC2)nc(N2CCOCC2)n1` [ZSTK474, 2-(difluoromethyl)-1-[4,6-di(4-morpholinyl)-1,3,5-triazin-2-yl]-1H-benzimidazole], for which the remaining activity at 1 µM stood at 100% on panel of 442 kinases [1]; 100% on panel of 442 kinases [2]; 80% at panel of 442 kinases [3]; 95% at panel of 442 kinases [4]; 100% on panel of 442 kinases [5]; 66% at panel of 442 kinases [6]. The remaining activity at 1 µM at panel of 442 kinases [7] and at panel of 442 kinases [8] was 100% each time. Further, the “% of control at 1 µM” value in the test on panel of 442 kinases [9] (setting [11]) is given as 89 % of control; with panel of 442 kinases [9] (setting [12]), 100 % of control; with panel of 442 kinases [9] (EGFR(L747-T751del,Sins), 1 µM) it was 100 % of control; with panel of 442 kinases [9] (FLT3(ITD), 1 µM), 99 % of control; in the test with panel of 442 kinases [9] (setting [13]), 100 % of control.
For the compound `CS(=O)(=O)N1CCN(Cc2cc3nc(-c4cccc5[nH]ncc45)nc(N4CCOCC4)c3s2)CC1` [Pictilisib, 2-(1H-indazol-4-yl)-6-(4-methanesulfonyl-piperazin-1-ylmethyl)-4-morpholin-4-yl-t hieno[3,2-d]pyrimidine], the “% of control at 1 µM” value in the test with panel of 442 kinases [9] (1 μM) is 98 % of control and 70 % of control and 99 % of control and 77 % of control and 72 % of control.
As for `COc1ncc(-c2ccc3nccc(-c4ccnnc4)c3c2)cc1NS(=O)(=O)c1ccc(F)cc1F` [Omipalisib], the remaining activity at 1 µM on panel of 442 kinases [1] is 100%; at panel of 442 kinases [2], 82%; at panel of 442 kinases [3], 100%; on panel of 442 kinases [4] it was 100%; at panel of 442 kinases [5], 100%; at panel of 442 kinases [6] it was 100%. Also, the results for the remaining activity at 1 µM on panel of 442 kinases [7] and on panel of 442 kinases [8] were 95% and 100%, respectively. Further, the “% of control at 1 µM” value in the test with panel of 442 kinases [9] (setting [11]) is on record as 92 % of control; with panel of 442 kinases [9] (setting [12]), 87 % of control; in the test on panel of 442 kinases [9] (EGFR(L747-T751del,Sins), 1 µM), 100 % of control; in the test with panel of 442 kinases [9] (FLT3(ITD), 1 µM) it was 100 % of control; with panel of 442 kinases [9] (setting [13]) it was 100 % of control.
